# Results reported in ChEMBL document CHEMBL2380212, “Synthesis, single crystal and antitumor activities of benzimidazole-quinazoline hybrids” (Bioorg Med Chem Lett, 2013).
# What was measured:
# [1] = test system: SK-OV-3; assay: Cytotoxicity against human SKOV3 cells at 10 uM after 48 hrs by SRB assay; assay type: functional; conditions: SK-OV-3, 48 h, read-out: GI
# [2] = test system: U-251; assay: Cytotoxicity against human U251 cells at 10 uM after 48 hrs by SRB assay; assay type: functional; conditions: U-251, 48 h, read-out: GI
# [3] = test system: T47D; assay: Cytotoxicity against human T47D cells at 10 uM after 48 hrs by SRB assay; assay type: functional; conditions: read-out: GI
# [4] = test system: UACC-257; assay: Cytotoxicity against human UACC257 cells at 10 uM after 48 hrs by SRB assay; assay type: functional; conditions: UACC-257, 48 h, read-out: GI
# [5] = test system: SF-539; assay: Cytotoxicity against human SF539 cells at 10 uM after 48 hrs by SRB assay; assay type: functional; conditions: SF-539, 48 h, read-out: GI
# [6] = test system: BT-549; assay: Cytotoxicity against human BT549 cells at 10 uM after 48 hrs by SRB assay; assay type: functional; conditions: BT-549, 48 h, read-out: GI
# [7] = test system: OVCAR-8; assay: Cytotoxicity against human OVCAR8 cells at 10 uM after 48 hrs by SRB assay; assay type: functional; conditions: OVCAR-8, 48 h, read-out: GI
# [8] = test system: IGROV-1; assay: Cytotoxicity against human IGROV1 cells at 10 uM after 48 hrs by SRB assay; assay type: functional; conditions: IGROV-1, 48 h, read-out: GI
# [9] = n-Octanol-phosphate buffer partition coefficient, log P of the compound at pH 7.4 by shake flask method; assay type: physicochemical
# [10] = Cytotoxicity against human EKVX cells at 10 uM after 48 hrs by SRB assay; assay type: functional; conditions: read-out: GI
# [11] = test system: UO-31; assay: Cytotoxicity against human UO31 cells at 10 uM after 48 hrs by SRB assay; assay type: functional; conditions: UO-31, 48 h, read-out: GI
# [12] = test system: SK-MEL-5; assay: Cytotoxicity against human SK-MEL-5 cells at 10 uM after 48 hrs by SRB assay; assay type: functional; conditions: SK-MEL-5, 48 h, read-out: GI
# [13] = test system: HCC 2998; assay: Cytotoxicity against human HCC2998 cells at 10 uM after 48 hrs by SRB assay; assay type: functional; conditions: HCC 2998, 48 h, read-out: GI
# [14] = test system: MDA-MB-435; assay: Cytotoxicity against human MDA-MB-435 cells at 10 uM after 48 hrs by SRB assay; assay type: functional; conditions: MDA-MB-435, 48 h, read-out: GI
# [15] = test system: A498; assay: Cytotoxicity against human A498 cells at 10 uM after 48 hrs by SRB assay; assay type: functional; conditions: A498, 48 h, read-out: GI
# [16] = test system: SK-MEL-28; assay: Cytotoxicity against human SK-MEL-28 cells at 10 uM after 48 hrs by SRB assay; assay type: functional; conditions: SK-MEL-28, 48 h, read-out: GI
# [17] = test system: A549; assay: Cytotoxicity against human A549 cells at 10 uM after 48 hrs by SRB assay; assay type: functional; conditions: A549, 48 h, read-out: GI
# [18] = test system: SF-295; assay: Cytotoxicity against human SF295 cells at 10 uM after 48 hrs by SRB assay; assay type: functional; conditions: SF-295, 48 h, read-out: GI
# [19] = test system: HL-60(TB); assay: Cytotoxicity against human HL-60(TB) cells at 10 uM after 48 hrs by SRB assay; assay type: functional; conditions: HL-60, 48 h, read-out: GI
# [20] = test system: SF-268; assay: Cytotoxicity against human SF268 cells at 10 uM after 48 hrs by SRB assay; assay type: functional; conditions: SF-268, 48 h, read-out: GI
# [21] = test system: 786-0; assay: Cytotoxicity against human 786-0 cells at 10 uM after 48 hrs by SRB assay; assay type: functional; conditions: 786-0, 48 h, read-out: GI
# [22] = test system: SK-MEL-2; assay: Cytotoxicity against human SK-MEL-2 cells at 10 uM after 48 hrs by SRB assay; assay type: functional; conditions: SK-MEL-2, 48 h, read-out: GI
# [23] = test system: PC-3; assay: Cytotoxicity against human PC3 cells at 10 uM after 48 hrs by SRB assay; assay type: functional; conditions: PC-3, 48 h, read-out: GI
# [24] = test system: SNB-75; assay: Cytotoxicity against human SNB75 cells at 10 uM after 48 hrs by SRB assay; assay type: functional; conditions: SNB-75, 48 h, read-out: GI
# [25] = test system: NCI-H460; assay: Cytotoxicity against human NCI-H460 cells at 10 uM after 48 hrs by SRB assay; assay type: functional; conditions: NCI-H460, 48 h, read-out: GI
# [26] = test system: HCT-116; assay: Cytotoxicity against human HCT116 cells at 10 uM after 48 hrs by SRB assay; assay type: functional; conditions: HCT-116, 48 h, read-out: GI
# [27] = test system: MDA-MB-231; assay: Cytotoxicity against human MDA-MB-231 cells at 10 uM after 48 hrs by SRB assay; assay type: functional; conditions: MDA-MB-231, 48 h, read-out: GI
# [28] = test system: OVCAR-3; assay: Cytotoxicity against human OVCAR3 cells at 10 uM after 48 hrs by SRB assay; assay type: functional; conditions: OVCAR-3, 48 h, read-out: GI
# [29] = test system: HCT-15; assay: Cytotoxicity against human HCT15 cells at 10 uM after 48 hrs by SRB assay; assay type: functional; conditions: HCT-15, 48 h, read-out: GI
# [30] = test system: K562; assay: Cytotoxicity against human K562 cells at 10 uM after 48 hrs by SRB assay; assay type: functional; conditions: K562, 48 h, read-out: GI
# [31] = test system: TK-10; assay: Cytotoxicity against human TK10 cells at 10 uM after 48 hrs by SRB assay; assay type: functional; conditions: TK-10, 48 h, read-out: GI
# [32] = test system: SN12C; assay: Cytotoxicity against human SN12C cells at 10 uM after 48 hrs by SRB assay; assay type: functional; conditions: read-out: GI
# [33] = test system: NCI/ADR-RES; assay: Cytotoxicity against human NCI/ADR-RES cells at 10 uM after 48 hrs by SRB assay; assay type: functional; conditions: read-out: GI
# [34] = test system: DU-145; assay: Cytotoxicity against human DU145 cells at 10 uM after 48 hrs by SRB assay; assay type: functional; conditions: DU-145, 48 h, read-out: GI
# [35] = test system: ACHN; assay: Cytotoxicity against human ACHN cells at 10 uM after 48 hrs by SRB assay; assay type: functional; conditions: read-out: GI
# [36] = test system: MCF7; assay: Cytotoxicity against human MCF7 cells at 10 uM after 48 hrs by SRB assay; assay type: functional; conditions: MCF7, 48 h, read-out: GI
# [37] = test system: MDA-MB-468; assay: Cytotoxicity against human MDA-MB-468 cells at 10 uM after 48 hrs by SRB assay; assay type: functional; conditions: MDA-MB-468, 48 h, read-out: GI
# [38] = test system: NCI-H226; assay: Cytotoxicity against human NCI-H226 cells at 10 uM after 48 hrs by SRB assay; assay type: functional; conditions: NCI-H226, 48 h, read-out: GI
# [39] = test system: HOP-62; assay: Cytotoxicity against human HOP62 cells at 10 uM after 48 hrs by SRB assay; assay type: functional; conditions: HOP-62, 48 h, read-out: GI
# [40] = test system: RXF 393; assay: Cytotoxicity against human RXF393 cells at 10 uM after 48 hrs by SRB assay; assay type: functional; conditions: RXF 393, 48 h, read-out: GI
# [41] = test system: Hs-578T; assay: Cytotoxicity against human Hs578T cells at 10 uM after 48 hrs by SRB assay; assay type: functional; conditions: read-out: GI
# [42] = test system: OVCAR-5; assay: Cytotoxicity against human OVCAR5 cells at 10 uM after 48 hrs by SRB assay; assay type: functional; conditions: OVCAR-5, 48 h, read-out: GI
smiles,measurement,setting,value
C=CCn1c(C)nc2cc(Nc3nc(Cl)nc4ccccc34)ccc21,inhibition of growth at 10 µM,[1],< 10%
same,inhibition of growth at 10 µM,[2],< 10%
same,inhibition of growth at 10 µM,[3],21.3%
same,inhibition of growth at 10 µM,[4],< 10%
same,inhibition of growth at 10 µM,[5],< 10%
same,inhibition of growth at 10 µM,[6],< 10%
same,inhibition of growth at 10 µM,[7],< 10%
same,inhibition of growth at 10 µM,[8],< 10%
same,logD,[9],1.17
same,inhibition of growth at 10 µM,[10],17.2%
same,inhibition of growth at 10 µM,[11],10.3%
same,inhibition of growth at 10 µM,[12],< 10%
same,inhibition of growth at 10 µM,[13],< 10%
same,inhibition of growth at 10 µM,[14],< 10%
same,inhibition of growth at 10 µM,[15],31.5%
same,inhibition of growth at 10 µM,[16],< 10%
same,inhibition of growth at 10 µM,[17],< 10%
same,inhibition of growth at 10 µM,[18],10.3%
same,inhibition of growth at 10 µM,[19],< 10%
same,inhibition of growth at 10 µM,[20],< 10%
same,inhibition of growth at 10 µM,[21],< 10%
same,inhibition of growth at 10 µM,[22],< 10%
same,inhibition of growth at 10 µM,[23],19.5%
same,inhibition of growth at 10 µM,[24],< 10%
same,inhibition of growth at 10 µM,[25],< 10%
same,inhibition of growth at 10 µM,[26],< 10%
same,inhibition of growth at 10 µM,[27],14.5%
same,inhibition of growth at 10 µM,[28],< 10%
same,inhibition of growth at 10 µM,[29],< 10%
same,inhibition of growth at 10 µM,[30],21.3%
same,inhibition of growth at 10 µM,[31],< 10%
same,inhibition of growth at 10 µM,[32],< 10%
same,inhibition of growth at 10 µM,[33],10.5%
same,inhibition of growth at 10 µM,[34],< 10%
same,inhibition of growth at 10 µM,[35],< 10%
same,inhibition of growth at 10 µM,[36],< 10%
same,inhibition of growth at 10 µM,[37],19.1%
same,inhibition of growth at 10 µM,[38],17.8%
same,inhibition of growth at 10 µM,[39],< 10%
same,inhibition of growth at 10 µM,[40],< 10%
same,inhibition of growth at 10 µM,[41],< 10%
same,inhibition of growth at 10 µM,[42],< 10%
C=CCn1c(C)nc2ccc(Nc3nc(N4CCOCC4)nc4ccccc34)cc21,inhibition of growth at 10 µM,[1],< 10%
same,inhibition of growth at 10 µM,[2],< 10%
same,inhibition of growth at 10 µM,[3],11.2%
same,inhibition of growth at 10 µM,[4],< 10%
same,inhibition of growth at 10 µM,[5],< 10%
same,inhibition of growth at 10 µM,[6],< 10%
same,inhibition of growth at 10 µM,[7],20.1%
same,inhibition of growth at 10 µM,[8],< 10%
same,logD,[9],2.81
same,inhibition of growth at 10 µM,[10],< 10%
same,inhibition of growth at 10 µM,[11],14.7%
same,inhibition of growth at 10 µM,[12],< 10%
same,inhibition of growth at 10 µM,[13],< 10%
same,inhibition of growth at 10 µM,[14],< 10%
same,inhibition of growth at 10 µM,[15],41.2%
same,inhibition of growth at 10 µM,[16],< 10%
same,inhibition of growth at 10 µM,[17],11.8%
same,inhibition of growth at 10 µM,[18],< 10%
same,inhibition of growth at 10 µM,[19],61.9%
same,inhibition of growth at 10 µM,[20],< 10%
same,inhibition of growth at 10 µM,[21],< 10%
same,inhibition of growth at 10 µM,[22],< 10%
same,inhibition of growth at 10 µM,[23],11.4%
same,inhibition of growth at 10 µM,[24],12.6%
same,inhibition of growth at 10 µM,[25],< 10%
same,inhibition of growth at 10 µM,[26],< 10%
same,inhibition of growth at 10 µM,[27],< 10%
same,inhibition of growth at 10 µM,[28],< 10%
same,inhibition of growth at 10 µM,[29],< 10%
same,inhibition of growth at 10 µM,[30],35.6%
same,inhibition of growth at 10 µM,[31],< 10%
same,inhibition of growth at 10 µM,[32],< 10%
same,inhibition of growth at 10 µM,[33],23.6%
same,inhibition of growth at 10 µM,[34],< 10%
same,inhibition of growth at 10 µM,[35],< 10%
same,inhibition of growth at 10 µM,[36],< 10%
same,inhibition of growth at 10 µM,[37],< 10%
same,inhibition of growth at 10 µM,[38],< 10%
same,inhibition of growth at 10 µM,[39],< 10%
same,inhibition of growth at 10 µM,[40],< 10%
same,inhibition of growth at 10 µM,[41],< 10%
same,inhibition of growth at 10 µM,[42],< 10%
